Structures are written as SMILES.

In the experiment the test system is L1 larvae of Lucilia sericata. The experiment in a line: Action against L1 larvae of Lucilia sericata. Conditions: 96 h, read-out: action (mortality count). The format is in vivo. How it is done:
1 ml of an aqueous suspension of test compound is mixed with 3 ml of a special larval culture medium at about 50° C. such that a homogeneous composition containing 250 ppm or 125 ppm of active ingredient is obtained. About 30 Lucilia sericata larvae (L1) are put into each test tube sample. A mortality count is made after 4 days. The compounds of formula I, such as, for example, Nos. 3.2, 3.6, 3.7, 3.10, 3.34 and 3.38, achieved 100% action at 125 ppm.
In the case of `CC1=C[C@H]2C(=O)O[C@H]3C[C@@H](C/C=C(\C)[C@]4(CCC(OC(C)C)O4)[C@@H](C)/C=C/C=C4\CO[C@H]([C@@H]1O)[C@@]42O)O[C@@]1(CC[C@H](C)[C@@H](C(C)C)O1)C3` (single isomer, unassigned) [Compound 3.10], the mortality at 125 ppm came out at 100%.
Turning to `COCCOC1CC[C@@]2(O1)/C(C)=C/C[C@@H]1C[C@@H](C[C@]3(CC[C@H](C)[C@@H](C(C)C)O3)O1)OC(=O)[C@@H]1C=C(C)[C@@H](O)[C@H]3OC/C(=C\C=C\[C@@H]2C)[C@]31O` (single isomer, unassigned) [Compound 3.34], the mortality at 125 ppm worked out at 100%.
Turning to `CCCOC1CC[C@@]2(O1)/C(C)=C/C[C@@H]1C[C@@H](C[C@]3(CC[C@H](C)[C@@H](C(C)C)O3)O1)OC(=O)[C@@H]1C=C(C)[C@@H](O)[C@H]3OC/C(=C\C=C\[C@@H]2C)[C@]31O` (single isomer, unassigned) [Compound 3.7], the mortality at 125 ppm came to 100%.
On to `CCOCCOC1CC[C@@]2(O1)/C(C)=C/C[C@@H]1C[C@@H](C[C@]3(CC[C@H](C)[C@@H](C(C)C)O3)O1)OC(=O)[C@@H]1C=C(C)[C@@H](O)[C@H]3OC/C(=C\C=C\[C@@H]2C)[C@]31O` (stereo partly drawn) [Compound 3.38], for which the mortality at 125 ppm was found to be 100%.
To `COC1CC[C@@]2(O1)/C(C)=C/C[C@@H]1C[C@@H](C[C@]3(CC[C@H](C)[C@@H](C(C)C)O3)O1)OC(=O)[C@@H]1C=C(C)[C@@H](O)[C@H]3OC/C(=C\C=C\[C@@H]2C)[C@]31O` (single isomer, unassigned) [Compound 3.2] belongs 100%; to `CCOC1CC[C@@]2(O1)/C(C)=C/C[C@@H]1C[C@@H](C[C@]3(CC[C@H](C)[C@@H](C(C)C)O3)O1)OC(=O)[C@@H]1C=C(C)[C@@H](O)[C@H]3OC/C(=C\C=C\[C@@H]2C)[C@]31O` (stereo partly drawn) [Compound 3.6], 100%.

For the origin of these results see patent US4871719A, “Composition for controlling parasites in productive livestock” (Ciba-Geigy Corporation, priority 1987, dated 1989).
